Values quoted from earlier work as cited in patent publication US20100255105A1, “EXTENDED RELEASE PHARMACEUTICAL COMPOSITION COMPRISING METOPROLOL SUCCINATE” (ZAKLADY FARMACEUTYCZNE POLPHARMA S.A., priority 2009, published 2010).

Settings: water at 37° C.

- solubility in water: 276 mg/mL
Structure (SMILES): COCCc1ccc(OCC(O)CNC(C)C)cc1 (stereo not shown) [metoprolol succinate]
